# Data reported in patent US20260000674A1, “PHARMACEUTICAL COMPOSITION” (GEXVal Inc., priority 2022, published 2026).
# Where a name gives a salt, the structure may show the parent alone.
# Test system: dermatitis in psoriasis model mice
# Test: Auricular thickening in imiquimod-induced psoriasis model mice (Test Examples 1 to 7)
# Type: in vivo, male BALB/cCrSlc mice
# Conditions: oral, Day 0 to Day 3
# Procedure: 15 mg/ear of imiquimod cream (product name: Beselna cream, manufactured by Mochida Pharmaceutical Co., Ltd.) was repeatedly applied to the right auricle of male BALB/cCrSlc mice (9 weeks old) at once a day for 4 days (Day 0 to Day 3) to prepare psoriasis model mice. One hour before the imiquimod application, Vehicle (0.5% methylcellulose (hereinafter abbreviated as 0.5% MC)), 3 mg/kg body weight MSP (5-HT4 receptor agonist), 3 mg/kg body weight RZT (5-HT1 receptor agonist), 3 mg/kg body weight TDS (5-HT1 receptor agonist), 3 mg/kg body weight LCS (5-HT2 receptor agonist), and 10 mg/kg body weight APR (positive control) were orally administered at 10 mL/kg body weight each (Day 0 to Day 3) (n=6 per administration group). The auricular thickness was measured before the imiquimod cream application (Day 0) and approximately 24 hours after the final administration of each evaluation substance (Day 1 to Day 4), and the difference in auricular thickness (auricular thickening) between Day 0 and Day 4 was evaluated as the degree of inflammation. Day 0 was defined as the day on which the imiquimod cream application was started.
# (§1) Psoriasis model mice were prepared by the same method as in Test Example 1, and Vehicle (0.5% MC), 3 mg/kg body weight MSP, 30 mg/kg body weight MSP, and 10 mg/kg body weight APR (positive control) were orally administered at 10 mL/kg body weight each (Day 0 to Day 3) (n=6 per administration group). The difference in auricular thickness (auricular thickening) between Day 0 and Day 4 was evaluated as the degree of inflammation.
# as §1, with “weight MSP, 3 mg/kg body weight PCP, 10 mg/kg body weight PCP, 30 mg/kg” for “weight MSP, 30 mg/kg”, “body weight PCP, 3 mg/kg body weight VRG, 10 mg/kg body weight VRG, 30 mg/kg body weight VRG, and 10” for “body weight MSP, and 10”, “10 mL/kg each (Day” for “10 mL/kg body weight each (Day”
# as §1, with “(0.5% MC), 30 mg/kg body” for “(0.5% MC), 3 mg/kg body”, “body weight CNP, 30 mg/kg body weight VRG, 30 mg/kg body weight CBP, and 10” for “body weight MSP, and 10”
# as §1, with “MC),” for “MC), 3 mg/kg body weight MSP,”, “PCP, 30 mg/kg body weight CSP, 30 mg/kg body weight TGR,” for “MSP,”
# Psoriasis model mice were prepared by the same method as in Test Example 1, and Vehicle (0.5% MC), 30 mg/kg body weight FCT, 30 mg/kg body weight UMP, 30 mg/kg body weight RLP, 30 mg/kg body weight RZP, 30 mg/kg body weight MSP, and 10 mg/kg body weight APR (positive control) were orally administered at 10 mL/kg body weight each (Day 0 to Day 3) (n=6 per administration group). The difference in auricular thickness (auricular thickening) between Day 0 and Day 4 was evaluated as the degree of inflammation.
# Psoriasis model mice were prepared by the same method as in Test Example 1, and Vehicle (0.5% MC), 30 mg/kg body weight NRP, 30 mg/kg body weight CJ-033466, 30 mg/kg body weight RVP, 30 mg/kg body weight E-3620, 30 mg/kg body weight MSP, and 10 mg/kg body weight APR (positive control) were orally administered at 10 mL/kg body weight each (Day 0 to Day 3) (n=6 per administration group). […]
# [1] = Test Example 4, FIG. 4, 30 mg/kg body weight
# [2] = Test Example 7, FIG. 7, 30 mg/kg body weight
# [3] = Test Example 5, FIG. 5, 30 mg/kg body weight
# [4] = Test Example 6, FIG. 6, 30 mg/kg body weight
# [5] = Test Example 1, FIG. 1, 3 mg/kg body weight
# [6] = Test Example 3, FIG. 3, at all doses (3, 10 and 30 mg/kg body weight)
compound,measurement,setting,value
"CCOc1cc([C@@H](CS(C)(=O)=O)N2C(=O)c3cccc(NC(C)=O)c3C2=O)ccc1OC [APR, Apremilast]",auricular thickening (difference in auricular thickness between Day 0 and Day 4) compared with 0.5% MC,"Test Example 1, FIG. 1, 10 mg/kg body weight",significantly suppressed the auricular thickening
same,auricular thickening (difference in auricular thickness between Day 0 and Day 4) compared with 0.5% MC,"Test Example 3, FIG. 3, 10 mg/kg body weight",significantly suppressed the auricular thickening
same,auricular thickening (difference in auricular thickness between Day 0 and Day 4) compared with 0.5% MC,"Test Example 4, FIG. 4, 10 mg/kg body weight",significantly suppressed the auricular thickening
same,auricular thickening (difference in auricular thickness between Day 0 and Day 4) compared with 0.5% MC,"Test Example 5, FIG. 5, 10 mg/kg body weight",significantly suppressed the auricular thickening
same,auricular thickening (difference in auricular thickness between Day 0 and Day 4) compared with 0.5% MC,"Test Example 6, FIG. 6, 10 mg/kg body weight",significantly suppressed the auricular thickening
same,auricular thickening (difference in auricular thickness between Day 0 and Day 4) compared with 0.5% MC,"Test Example 7, FIG. 7, 10 mg/kg body weight",significantly suppressed the auricular thickening
"COc1cc(N)c(Cl)cc1C(=O)NC1CCN(Cc2ccccc2)CC1 [CBP, Clebopride malate]",auricular thickening (difference in auricular thickness between Day 0 and Day 4) compared with 0.5% MC,[1],significantly suppressed the auricular thickening
Cc1cn2c(N)c(Cl)cc(C(=O)NCC3CCN(CC(C)C)CC3)c2n1 [CJ-033466],auricular thickening (difference in auricular thickness between Day 0 and Day 4) compared with 0.5% MC,[2],significantly suppressed the auricular thickening
"COc1cc(N)c(Cl)cc1C(=O)NC1CCN(CCCOc2ccc(F)cc2)CC1OC (stereo not shown) [CSP, Cisapride]",auricular thickening (difference in auricular thickness between Day 0 and Day 4) compared with 0.5% MC,[3],significantly suppressed the auricular thickening
CC#C[C@H](C)Oc1cc(N)c(Cl)cc1C(=O)NC1C[C@H]2CC[C@@H](C1)N2C.Cl (stereo partly shown) [E-3620],auricular thickening (difference in auricular thickness between Day 0 and Day 4) compared with 0.5% MC,[2],significantly suppressed the auricular thickening
"COC(=O)N1CCC(CN2CCC(CNC(=O)c3cccc4nc(C(C)C)[nH]c34)CC2)CC1 [FCT, Felcisetrag]",auricular thickening (difference in auricular thickness between Day 0 and Day 4) compared with 0.5% MC,[4],significantly suppressed the auricular thickening
"C[C@H]1CNCCc2ccc(Cl)cc21 [LCS, Lorcaserin hydrochloride]",auricular thickening (difference in auricular thickness between Day 0 and Day 4) compared with 0.5% MC,[5],"none of 3 mg/kg body weight RZT (5-HT1 receptor agonist) (comparative example), 3 mg/kg body weight TDS (5-HT1 receptor agonist) (comparative example), and 3 mg/kg body weight LCS (5-HT2 receptor agonist) (comparative example) suppressed the auricular thickening"
"COc1cc(N)c(Cl)cc1C(=O)N[C@@H]1CCN(CCCCCC(=O)O[C@H]2CN3CCC2CC3)C[C@@H]1OC [NRP, Naronapride hydrochloride]",auricular thickening (difference in auricular thickness between Day 0 and Day 4) compared with 0.5% MC,[2],significantly suppressed the auricular thickening
"COc1cc(N)c(Cl)cc1C(=O)NCC1CCN(CC[C@H](OC(N)=O)c2ccc(F)cc2)CC1.Cl [RLP, Relenopride hydrochloride]",auricular thickening (difference in auricular thickness between Day 0 and Day 4) compared with 0.5% MC,[4],significantly suppressed the auricular thickening
"COCCCN1CC[C@@H](CNC(=O)c2cc(Cl)c(N)c3c2OC(C)(C)C3)[C@H](O)C1 [RVP, Revexepride]",auricular thickening (difference in auricular thickness between Day 0 and Day 4) compared with 0.5% MC,[2],significantly suppressed the auricular thickening
"CN(C)CCc1c[nH]c2ccc(Cn3cncn3)cc12 [RZT, Rizatriptan benzoate]",auricular thickening (difference in auricular thickness between Day 0 and Day 4) compared with 0.5% MC,[5],"none of 3 mg/kg body weight RZT (5-HT1 receptor agonist) (comparative example), 3 mg/kg body weight TDS (5-HT1 receptor agonist) (comparative example), and 3 mg/kg body weight LCS (5-HT2 receptor agonist) (comparative example) suppressed the auricular thickening"
"[H]/N=C(/NCCCCC)N/N=C/c1c[nH]c2ccc(OC)cc12 [TGR, Tegaserod maleate]",auricular thickening (difference in auricular thickness between Day 0 and Day 4) compared with 0.5% MC,[3],significantly suppressed the auricular thickening
"COCCCN1CCC(c2nnc(-c3nn(C(C)C)c4ccccc34)o2)CC1 [UMP, Usmarapride]",auricular thickening (difference in auricular thickness between Day 0 and Day 4) compared with 0.5% MC,[4],significantly suppressed the auricular thickening
"CC(C)n1c(=O)c(C(=O)N[C@H]2C[C@H]3CC[C@@H](C2)N3C[C@@H](O)CN(C)S(C)(=O)=O)cc2ccccc21 [VRG, Velusetrag]",auricular thickening (difference in auricular thickness between Day 0 and Day 4) compared with 0.5% MC,[6],significantly suppressed the auricular thickening at all doses
same,auricular thickening (difference in auricular thickness between Day 0 and Day 4) compared with 0.5% MC,[1],significantly suppressed the auricular thickening
Cinitapride tartrate [CNP],auricular thickening (difference in auricular thickness between Day 0 and Day 4) compared with 0.5% MC,[1],significantly suppressed the auricular thickening
Mosapride citrate dihydrate [MSP],auricular thickening (difference in auricular thickness between Day 0 and Day 4) compared with 0.5% MC,[5],significantly suppressed the auricular thickening
same,auricular thickening (difference in auricular thickness between Day 0 and Day 4) compared with 0.5% MC,"Test Example 2, FIG. 2, 3 mg/kg body weight",significantly suppressed the auricular thickening in a dose-dependent manner
same,auricular thickening (difference in auricular thickness between Day 0 and Day 4) compared with 0.5% MC,"Test Example 2, FIG. 2, 30 mg/kg body weight",significantly suppressed the auricular thickening in a dose-dependent manner
same,auricular thickening (difference in auricular thickness between Day 0 and Day 4) compared with 0.5% MC,"Test Example 3, FIG. 3, 3 mg/kg body weight",significantly suppressed the auricular thickening
same,auricular thickening (difference in auricular thickness between Day 0 and Day 4) compared with 0.5% MC,[1],significantly suppressed the auricular thickening
same,auricular thickening (difference in auricular thickness between Day 0 and Day 4) compared with 0.5% MC,[4],significantly suppressed the auricular thickening
same,auricular thickening (difference in auricular thickness between Day 0 and Day 4) compared with 0.5% MC,[2],significantly suppressed the auricular thickening
Prucalopride succinate [PCP],auricular thickening (difference in auricular thickness between Day 0 and Day 4) compared with 0.5% MC,[6],significantly suppressed the auricular thickening at all doses
same,auricular thickening (difference in auricular thickness between Day 0 and Day 4) compared with 0.5% MC,[3],significantly suppressed the auricular thickening
Tandospirone citrate [TDS],auricular thickening (difference in auricular thickness between Day 0 and Day 4) compared with 0.5% MC,[5],"none of 3 mg/kg body weight RZT (5-HT1 receptor agonist) (comparative example), 3 mg/kg body weight TDS (5-HT1 receptor agonist) (comparative example), and 3 mg/kg body weight LCS (5-HT2 receptor agonist) (comparative example) suppressed the auricular thickening"
